Tests used:
[1] = tested on: bleomycin-induced lung fibrosis; settings: in-vivo, bleomycin-induced lung fibrosis model in mice (Cortijo et al. 2009); cited from earlier work
[2] = tested on: patients with pulmonary fibrosis; settings: open-label trials (Ghofrani 2002; Collard 2007); cited from earlier work
[3] = tested on: bleomycin-induced pulmonary fibrosis and pulmonary hypertension; settings: through inhibition of ROS generation and RhoA/Rho kinase activation (Hemnes et al. 2008); cited from earlier work
[4] = molecular target: T1, PDE4B1 (Homo sapiens, UniProt Q07343); experiment: Inhibition of PDE4B1 activity (SPA, [3H]cAMP); type: biochemical; settings: recombinant PDE4B1 expressed in SF21 cells; 0.5 pM [sic] cAMP; values given as bins; read-out: PDE4B1 inhibitory values measured as −logIC50 (converted)
T1 construct: made in house; host or cells: SF21 insect cells (baculovirus; pCR-Bac vector)
T1 sequence (Q07343 whole entry): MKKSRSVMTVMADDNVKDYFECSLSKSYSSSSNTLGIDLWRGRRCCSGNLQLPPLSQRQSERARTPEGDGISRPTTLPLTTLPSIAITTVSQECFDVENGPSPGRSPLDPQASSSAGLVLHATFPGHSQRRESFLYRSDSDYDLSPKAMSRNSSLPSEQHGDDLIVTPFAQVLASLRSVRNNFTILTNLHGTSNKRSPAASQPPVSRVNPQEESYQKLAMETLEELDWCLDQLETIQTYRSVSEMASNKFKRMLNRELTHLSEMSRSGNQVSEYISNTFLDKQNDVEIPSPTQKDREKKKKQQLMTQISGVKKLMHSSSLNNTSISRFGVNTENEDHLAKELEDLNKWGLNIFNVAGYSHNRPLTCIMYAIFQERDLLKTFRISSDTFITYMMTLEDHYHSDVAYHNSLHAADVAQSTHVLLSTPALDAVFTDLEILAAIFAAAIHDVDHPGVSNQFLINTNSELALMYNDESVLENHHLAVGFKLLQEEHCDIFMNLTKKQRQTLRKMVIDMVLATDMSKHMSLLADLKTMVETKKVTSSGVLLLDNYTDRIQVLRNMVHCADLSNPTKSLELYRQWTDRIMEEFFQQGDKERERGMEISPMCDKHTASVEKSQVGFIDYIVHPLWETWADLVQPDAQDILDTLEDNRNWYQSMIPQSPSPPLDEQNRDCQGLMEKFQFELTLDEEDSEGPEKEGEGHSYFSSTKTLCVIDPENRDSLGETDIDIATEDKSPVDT
How it was run: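 Recombinant human PDE4B1 (Sf21 cell 1000 g supernatant) in 20 mM Tris pH 7.4, 0.1 mg/ml BSA, 5 mM Mg2+, […] with [3H]cAMP tracer, enzyme giving 10-20% conversion. After 5 min preincubation at 37 °C, 15 min reaction, stopped by SPA beads with IBMX; IC50 by non-linear regression.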

[5] = molecular target: T2, human PDE5 (Homo sapiens, UniProt O76074); experiment: Inhibition of PDE5 activity (SPA, [3H]cGMP, platelet lysate); type: biochemical; settings: PDE5 from human platelet lysate; values given as bins; read-out: PDE5A inhibitory values measured as −logIC50 (converted)
T2 construct: from tissue; host or cells: human platelets from fresh donor blood (10,000 g supernatant of sonicated platelets)
How it was run: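 Human platelet lysate served as PDE5 source, with 1 μM motapizone and 10 nM PDE2 inhibitor present; […] plus [3H]cGMP tracer, pH 7.4, 5 mM Mg2+, 10-20% substrate turnover. After 5 min preincubation, 15 min at 37 °C, stopped with SPA beads and IBMX; IC50 by non-linear regression.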

| Compound | IC50 [4] [nM] | IC50 [5] [nM] | other results |
| --- | --- | --- | --- |
| O=C(Nc1c(Cl)cncc1Cl)c1ccc(OC(F)F)c(OCC2CC2)c1 [roflumilast] | – | – | fibrosis development [1]: inhibit fibrosis development |
| CCCc1nn(C)c2c(=O)[nH]c(-c3cc(S(=O)(=O)N4CCN(C)CC4)ccc3OCC)nc12 [sildenafil] | – | – | exercise tolerance [2]: increases exercise tolerance; lung hemodynamic (vascular resistance and ventilation/perfusion matching) [2]: improves lung hemodynamic; bleomycin-induced pulmonary fibrosis and pulmonary hypertension [3]: attenuates bleomycin-induced pulmonary fibrosis and pulmonary hypertension |
| CCOc1cc2c(cc1OC)C(c1ccc(C(=O)N3CCC(n4c(=O)c5sc(-c6ccc(F)c(F)c6)cc5n(Cc5nc(CC)no5)c4=O)CC3)cc1)=N[C@@H]1CCSC[C@H]21 [Example 49, 6-(3,4-difluorophenyl)-3-[1-({4-[(4aR,10bR)-9-ethoxy-8-methoxy-3,4,4a,10b-tetrahydro-1H-thiopyrano[4,3-c]isoquinolin-6-yl]phenyl}carbonyl)piperidin-4-yl]-1-[(3-ethyl-1,2,4-oxadiazol-5-yl)methyl]thieno[3,2-d]pyrimidine-2,4(1H,3H)-dione] | 1 to 10 | < 10 | – |
| CCOc1cc2c(cc1OC)C(c1ccc(C(=O)N3CCC(n4c(=O)c5sc(-c6ccccc6)cc5n(Cc5nnn(COC)n5)c4=O)CC3)cc1)=N[C@@H]1CCSC[C@H]21 [Example 28, 3-[1-({4-[(4aR,10bR)-9-ethoxy-8-methoxy-3,4,4a,10b-tetrahydro-1H-thiopyrano[4,3-c]isoquinolin-6-yl]phenyl}carbonyl)piperidin-4-yl]-1-{[2-(methoxymethyl)-2H-tetrazol-5-yl]methyl}-6-phenylthieno[3,2-d]pyrimidine-2,4(1H,3H)-dione] | < 1 | < 10 | – |
| CCn1nnc(Cn2c(=O)n(C3CCN(C(=O)c4ccc(C5=N[C@@H]6CCSC[C@@H]6c6cc(OC)c(OC)cc65)cc4)CC3)c(=O)c3sc(-c4ccccc4)cc32)n1 [Example 59, 3-[1-({4-[(4aR,10bR)-8,9-dimethoxy-3,4,4a,10b-tetrahydro-1H-thiopyrano[4,3-c]isoquinolin-6-yl]phenyl}carbonyl)piperidin-4-yl]-1-[(2-ethyl-2H-tetrazol-5-yl)methyl]-6-phenylthieno[3,2-d]pyrimidine-2,4(1H,3H)-dione] | > 10 | < 10 | – |
| CCOc1cc2c(cc1OC)C(c1ccc(C(=O)N3CCC(n4c(=O)c5sc(-c6ccccc6)cc5n(Cc5ncn(C)n5)c4=O)CC3)cc1)=N[C@@H]1CCSC[C@H]21 [Example 52, 3-[1-({4-[(4aR,10bR)-9-ethoxy-8-methoxy-3,4,4a,10b-tetrahydro-1H-thiopyrano[4,3-c]isoquinolin-6-yl]phenyl}carbonyl)piperidin-4-yl]-1-[(1-methyl-1H-1,2,4-triazol-3-yl)methyl]-6-phenylthieno[3,2-d]pyrimidine-2,4(1H,3H)-dione] | < 1 | > 100 | – |
| CCOc1cc2c(cc1OC)C(c1cccc(C(=O)N3CCC(n4c(=O)c5sc(-c6ccc(F)cc6OC)cc5n(Cc5nc(COC)no5)c4=O)CC3)c1)=N[C@@H]1CCSC[C@H]21 [Example 45, 3-[1-({3-[(4aR,10bR)-9-ethoxy-8-methoxy-3,4,4a,10b-tetrahydro-1H-thiopyrano[4,3-c]isoquinolin-6-yl]phenyl}carbonyl)piperidin-4-yl]-6-(4-fluoro-2-methoxyphenyl)-1-{[3-(methoxymethyl)-1,2,4-oxadiazol-5-yl]methyl}thieno[3,2-d]pyrimidine-2,4(1H,3H)-dione] | 1 to 10 | < 10 | – |
| CCOc1cc2c(cc1OC)C(c1ccc(C(=O)N3CCC(n4c(=O)c5sc(-c6ccccc6)cc5n(Cc5nc(CC)ns5)c4=O)CC3)cc1)=N[C@@H]1CCSC[C@H]21 [Example 22, 3-[1-({4-[(4aR,10bR)-9-ethoxy-8-methoxy-3,4,4a,10b-tetrahydro-1H-thiopyrano[4,3-c]isoquinolin-6-yl]phenyl}carbonyl)piperidin-4-yl]-1-[(3-ethyl-1,2,4-thiadiazol-5-yl)methyl]-6-phenylthieno[3,2-d]pyrimidine-2,4(1H,3H)-dione] | 1 to 10 | 10 to 100 | – |
| CCOc1cc2c(cc1OC)C(c1ccc(C(=O)N3CCC(n4c(=O)c5sc(-c6ccccc6)cc5n(Cc5nccn5C)c4=O)CC3)cc1)=N[C@@H]1CCSC[C@H]21 [Example 53, 3-[1-({4-[(4aR,10bR)-9-ethoxy-8-methoxy-3,4,4a,10b-tetrahydro-1H-thiopyrano[4,3-c]isoquinolin-6-yl]phenyl}carbonyl)piperidin-4-yl]-1-[(1-methyl-1H-imidazol-2-yl)methyl]-6-phenylthieno[3,2-d]pyrimidine-2,4(1H,3H)-dione] | < 1 | > 100 | – |
| CCOc1cc2c(cc1OC)C(c1ccc(C(=O)N3CCC(n4c(=O)c5sc(-c6ccccc6F)cc5n(Cc5nc(CC)no5)c4=O)CC3)cc1)=N[C@@H]1CCSC[C@H]21 [Example 48, 3-[1-({4-[(4aR,10bR)-9-ethoxy-8-methoxy-3,4,4a,10b-tetrahydro-1H-thiopyrano[4,3-c]isoquinolin-6-yl]phenyl}carbonyl)piperidin-4-yl]-1-[(3-ethyl-1,2,4-oxadiazol-5-yl)methyl]-6-(2-fluorophenyl)thieno[3,2-d]pyrimidine-2,4(1H,3H)-dione] | 1 to 10 | < 10 | – |
| CCOc1cc2c(cc1OC)C(c1ccc(C(=O)N3CCC(n4c(=O)c5sc(-c6ccccc6)cc5n(Cc5nc(CC)co5)c4=O)CC3)cc1)=N[C@@H]1CCSC[C@H]21 [Example 5, 3-[1-({4-[(4aR,10bR)-9-ethoxy-8-methoxy-3,4,4a,10b-tetrahydro-1H-thiopyrano[4,3-c]isoquinolin-6-yl]phenyl}carbonyl)piperidin-4-yl]-1-[(4-ethyl-1,3-oxazol-2-yl)methyl]-6-phenylthieno[3,2-d]pyrimidine-2,4(1H,3H)-dione] | 1 to 10 | 10 to 100 | – |
| CCOc1cc2c(cc1OC)C(c1ccc(C(=O)N3CCC(n4c(=O)c5sc(-c6ccccc6)cc5n(Cc5nc(COC)no5)c4=O)CC3)cc1)=N[C@@H]1CCSC[C@H]21 [Example 15, 3-(1-{4-[(4aR,10bR)-9-ethoxy-8-methoxy-3,4,4a,10b-tetrahydro-1H-thiopyrano[4,3-c]isoquinolin-6-yl]benzoyl}piperidin-4-yl)-1-{[3-(methoxymethyl)-1,2,4-oxadiazol-5-yl]methyl}-6-phenylthieno[3,2-d]pyrimidine-2,4(1H,3H)-dione] | 1 to 10 | < 10 | – |
| CCOc1cc2c(cc1OC)C(c1ccc(C(=O)N3CCC(n4c(=O)c5sc(-c6ccccc6)cc5n(Cc5nnn(CC)n5)c4=O)CC3)cc1)=N[C@@H]1CCSC[C@H]21 [Example 14, 3-[1-({4-[(4aR,10bR)-9-ethoxy-8-methoxy-3,4,4a,10b-tetrahydro-1H-thiopyrano[4,3-c]isoquinolin-6-yl]phenyl}carbonyl)piperidin-4-yl]-1-[(2-ethyl-2H-tetrazol-5-yl)methyl]-6-phenylthieno[3,2-d]pyrimidine-2,4(1H,3H)-dione] | > 10 | < 10 | – |
| CCOc1cc2c(cc1OC)C(c1cccc(C(=O)N3CCC(n4c(=O)c5sc(-c6ccc(F)cc6OC)cc5n(Cc5nnn(CC)n5)c4=O)CC3)c1)=N[C@@H]1CCSC[C@H]21 [Example 33, 3-[1-({3-[(4aR,10bR)-9-ethoxy-8-methoxy-3,4,4a,10b-tetrahydro-1H-thiopyrano[4,3-c]isoquinolin-6-yl]phenyl}carbonyl)piperidin-4-yl]-1-[(2-ethyl-2H-tetrazol-5-yl)methyl]-6-(4-fluoro-2-methoxyphenyl)thieno[3,2-d]pyrimidine-2,4(1H,3H)-dione] | > 10 | 10 to 100 | – |
| CCOc1cc2c(cc1OC)C(c1ccc(C(=O)N3CCC(n4c(=O)c5sc(-c6cc(OC)ccc6OC)cc5n(Cc5nnn(CC)n5)c4=O)CC3)cc1)=N[C@@H]1CCSC[C@H]21 [Example 36, 6-(2,5-dimethoxyphenyl)-3-[1-({4-[(4aR,10bR)-9-ethoxy-8-methoxy-3,4,4a,10b-tetrahydro-1H-thiopyrano[4,3-c]isoquinolin-6-yl]phenyl}carbonyl)piperidin-4-yl]-1-[(2-ethyl-2H-tetrazol-5-yl)methyl]thieno[3,2-d]pyrimidine-2,4(1H,3H)-dione] | > 10 | < 10 | – |
| CCOc1cc2c(cc1OC)C(c1ccc(C(=O)N3CCC(n4c(=O)c5sc(-c6ccccc6)cc5n(Cc5sccc5C)c4=O)CC3)cc1)=N[C@@H]1CCSC[C@H]21 [Example 56, 3-[1-({4-[(4aR,10bR)-9-ethoxy-8-methoxy-3,4,4a,10b-tetrahydro-1H-thiopyrano[4,3-c]isoquinolin-6-yl]phenyl}carbonyl)piperidin-4-yl]-1-[(3-methylthiophen-2-yl)methyl]-6-phenylthieno[3,2-d]pyrimidine-2,4(1H,3H)-dione] | 1 to 10 | > 100 | – |

From patent US9018175B2 (Takeda GmbH, priority 2009, dated 2015)
